# Data from US20240261258A1, “Presurgical Perineural Administration of Resiniferatoxin For Reduction of Post-Operative Pain” (Sorrento Therapeutics, Inc., priority 2021, published 2024).
# Tests used:
# [1] = test system: healthy dogs undergoing TPLO surgery; test: Clinical observations during RTX instillation under general anesthesia and recovery; format: in vivo, dog
# Source text: This example provides safety data related to the tolerability of RTX administered as a nerve block pre-surgically and as a local application on the surgical site intraoperatively in healthy dogs undergoing tibial plateau levelling osteotomy (TPLO). Pharmacological behavior of RTX after a perineural injection and local application in the hindlimb and the long-term effects on bone healing was also observed.
# Fourteen adult female beagle dogs, weighing 11.9±0.6 kg and between 3-5 years of age, were enrolled in this study. Each animal was randomly assigned to one of four groups. Four dogs (group 1) received a femoral and sciatic nerve block with 12.5 μg RTX per nerve (25 μg RTX total) diluted with sterile saline for a total volume of 2 mL (half volume per block). Another four dogs (group 2) received a femoral and a sciatic nerve block with 3.12 μg RTX per nerve block (6.25 μg RTX total) diluted with sterile saline for a total volume of 2 mL (half volume per block). Group 3 (4 animals) received a femoral and sciatic nerve block with 5 mg bupivacaine total (standard of care) plus a total of 50 μg RTX (total volume of 4 mL, concentration 12.5 μg/mL) applied locally to the cut on the tibia for 10 min. Group 4 (2 animals) was the control group and received a femoral and a sciatic nerve block with 5 mg bupivacaine total (standard of care).
# Dogs were sedated and anesthetized using standard protocols and following the American College of Veterinary Analgesia and Anesthesia guidelines. A physical exam was performed prior to surgery and a complete blood count and chemistry profile were submitted. Food was withheld for 8-10 hours before surgery and offered again 4-6 hours after recovery from anesthesia.
# Diphenhydramine (2.2 mg/kg) was given IM after induction. The peripheral IV catheter was used for administration of fluid (Lactate Ringer's solution (LRS) at 5 mL/kg/h), and intraoperative drugs when necessary (hydromorphone and/or ketamine and/or dexmedetomidine for analgesia, atropine in case of bradycardia, dopamine or dobutamine in case of hypotension). Cefazolin 22 mg/kg was administered intravenously prior to surgery and every 60-90 minutes during surgery.
# Femoral and sciatic nerve blocks with RTX or bupivacaine were performed after induction of general anesthesia, and followed by surgery (TPLO). RTX was administered at least 15 minutes prior to any cut made to the bone. Dogs in group 3 received RTX during surgery via direct application on the bone.
# At the end of surgery, animals were allowed to recover. Following extubation, animals were supervised until able to stand and walk steadily, then monitored for the first 4 hours following the procedure. Food and water were given at 4-6 hours if recovery was smooth and uneventful. All subjects received oral carprofen 2.2 mg/kg twice a day for 10 days and trazodone 5-7 mg/kg twice a day, until the end of the study.
# Perineural injections (femoral and sciatic nerve block) of RTX were performed before surgery under general anesthesia and application of RTX over the bone incision was done during the surgical procedure. The nerve blocks were applied at after administration of anesthesia and least 15 minutes before surgery.
# For the perineural injections, the animal was placed in right lateral recumbency and the lateral and medial aspects of proximal area of the left hindlimb were clipped and prepared using an aseptic technique. A caudal approach was used for the sciatic nerve block. The ultrasound transducer was placed over the lateral aspect of the biceps femoris, just distal to the greater trochanter and oriented craniocaudally. After obtaining a short axis view of the sciatic nerve, a sheathed needle for electrolocation was inserted caudally in-plane with the ultrasound transducer until the tip of the needle reached the nerve. The correct location of the needle was confirmed by a positive response (twitches of the leg) after activation of the nerve locator using a current of 0.3-0.5 mA. […]
# [2] = test system: SP nerve axons of sciatic and femoral nerves; test: Quantification of SP immunopositive nerve fibers; format: in vivo, dog; conditions: for Density of SP nerve axons in the ipsilateral femoral nerve: not statistically significant
# Protocol: FIGS. 2A-J show density of SP nerve axons in representative confocal images of ipsilateral (left; A-D) and contralateral (right; E-H) sciatic nerve from dogs post-TPLO and after different treatment and doses of RTX. Each bar represents the mean±SEM. Data were analyzed by one-way ANOVA followed by Tukey post hoc test; *p<0.05. FIGS. 2I-J are bar graphs of the density of SP nerve axons (density of nerve fibers in mm/mm3) in ipsilateral (I), and contralateral (J) sciatic nerves as measured in n subjects in each group.
# FIGS. 4A-J show the density of SP-immunoreactive axons in representative confocal images showing the presence of […] axons from ipsilateral (A-D) and contralateral (E-H) canine femoral nerves from dogs post-TPLO and after treatment of RTX. Each bar represents the mean±SEM. FIGS. 4I-J are bar graphs of the density of SP nerve axons (density of nerve fibers in mm/mm3) in ipsilateral (I), and contralateral (J) femoral nerves as measured in n subjects in each group.
# FIG. 4 illustrates the effect of RTX on SP density in nerve fibers innervating the ipsilateral (FIG. 4A-D) and contralateral (FIG. 4E-H) femoral nerves from dogs post-TPLO.
smiles,measurement,setting,value
"C=C(C)[C@]12C[C@@H](C)[C@@]34O[C@](Cc5ccccc5)(O[C@@H]1[C@@H]3C=C(COC(=O)Cc1ccc(O)c(OC)c1)C[C@]1(O)C(=O)C(C)=C[C@@H]41)O2 [RTX, resiniferatoxin]",Dogs that required dobutamine to treat hypotension,"[1]; Group 1 (4 dogs), after RTX administration",None
same,Dogs given dexmedetomidine IV to treat dysphoria immediately after extubation,[1]; Group 2,one
same,Dogs given naloxone IV due to prolonged recovery,[1]; Group 2,One
same,Dogs that required dobutamine to treat hypotension,"[1]; Group 2 (4 dogs), after RTX administration",one
same,Dogs given dexmedetomidine IV to treat dysphoria immediately after extubation,[1]; Group 3,one
same,Dogs that required dobutamine to treat hypotension,[1]; Group 3 (4 dogs),two
same,Mean blood pressure after increase,"[1]; Subject 2968 (group 1), from 60 mmHg, 100 minutes after RTX, leg stretched during aseptic preparation",172 mmHg
same,Heart rate after increase,"[1]; Subject 2968 (group 1), from 90 bpm, 100 minutes after RTX, leg stretched during aseptic preparation",168 bpm
same,Tolerability,"[1]; all RTX treatments: nerve block 6.25 μg and 25 μg total, local gauze loaded with 50 μg",well tolerated
same,Change in heart rate and blood pressure,"[1]; approximately 15 to 25 minutes after RTX administration, group 1 and 2 subjects",mild to moderate increase
same,Respiratory observation after extubation,[1]; dogs in group 1 and 2,polypnea
same,Body temperature to which dogs decreased before polypnea ended,"[1]; dogs in group 1 and 2, after extubation",94-95 ° F
same,Duration of decrease in body temperature after the treatment,"[1]; some dogs of groups 1 and 2, clinically acted normally",up to 3 days
same,Persistence of hypothermia,"[1]; three subjects of group 1 (0271, 2968, 5635), without any clinical signs",over 24 hours
same,Density of SP nerve axons in the contralateral sciatic nerve vs control treatment,"[2]; RTX treated groups, p=0.9122, p=0.9995, p=0.9971",did not affect
same,Density of SP nerve axons in the contralateral femoral nerve,"[2]; RTX treatment, p=0.9907, p=0.8812, p=0.9066",did not have an effect
same,Density of SP axons of the ipsilateral sciatic nerve vs control treatment,"[2]; local administration (50 μg), p=0.0155",statistically significant reduction
same,Density of SP axons of the ipsilateral sciatic nerve vs control treatment,"[2]; peri-neural 3.12 μg per nerve (6.25 μg total), p=0.0335",statistically significant reduction
same,Density of SP nerve axons in the ipsilateral femoral nerve,"[2]; peri-neural 3.12 μg per nerve, p=0.8519",marked trend in reducing density
same,Density of SP axons of the ipsilateral sciatic nerve vs control treatment,"[2]; peri-neural 12.5 μg per nerve (25 μg total), p=0.0112",statistically significant reduction
same,Density of SP nerve axons in the ipsilateral femoral nerve,"[2]; peri-neural 12.5 μg per nerve, p=0.1216",marked trend in reducing density
